Consider three compounds from patent US5858684A, “Method of screening calcium receptor-active molecules” (priority 1995, dated 1999).

Assay [1] deals with T1, calcium receptor expressed from bovine parathyroid cell mRNA in Xenopus oocytes (Bos taurus, UniProt P35384).
T1 sequence (P35384 20-1085): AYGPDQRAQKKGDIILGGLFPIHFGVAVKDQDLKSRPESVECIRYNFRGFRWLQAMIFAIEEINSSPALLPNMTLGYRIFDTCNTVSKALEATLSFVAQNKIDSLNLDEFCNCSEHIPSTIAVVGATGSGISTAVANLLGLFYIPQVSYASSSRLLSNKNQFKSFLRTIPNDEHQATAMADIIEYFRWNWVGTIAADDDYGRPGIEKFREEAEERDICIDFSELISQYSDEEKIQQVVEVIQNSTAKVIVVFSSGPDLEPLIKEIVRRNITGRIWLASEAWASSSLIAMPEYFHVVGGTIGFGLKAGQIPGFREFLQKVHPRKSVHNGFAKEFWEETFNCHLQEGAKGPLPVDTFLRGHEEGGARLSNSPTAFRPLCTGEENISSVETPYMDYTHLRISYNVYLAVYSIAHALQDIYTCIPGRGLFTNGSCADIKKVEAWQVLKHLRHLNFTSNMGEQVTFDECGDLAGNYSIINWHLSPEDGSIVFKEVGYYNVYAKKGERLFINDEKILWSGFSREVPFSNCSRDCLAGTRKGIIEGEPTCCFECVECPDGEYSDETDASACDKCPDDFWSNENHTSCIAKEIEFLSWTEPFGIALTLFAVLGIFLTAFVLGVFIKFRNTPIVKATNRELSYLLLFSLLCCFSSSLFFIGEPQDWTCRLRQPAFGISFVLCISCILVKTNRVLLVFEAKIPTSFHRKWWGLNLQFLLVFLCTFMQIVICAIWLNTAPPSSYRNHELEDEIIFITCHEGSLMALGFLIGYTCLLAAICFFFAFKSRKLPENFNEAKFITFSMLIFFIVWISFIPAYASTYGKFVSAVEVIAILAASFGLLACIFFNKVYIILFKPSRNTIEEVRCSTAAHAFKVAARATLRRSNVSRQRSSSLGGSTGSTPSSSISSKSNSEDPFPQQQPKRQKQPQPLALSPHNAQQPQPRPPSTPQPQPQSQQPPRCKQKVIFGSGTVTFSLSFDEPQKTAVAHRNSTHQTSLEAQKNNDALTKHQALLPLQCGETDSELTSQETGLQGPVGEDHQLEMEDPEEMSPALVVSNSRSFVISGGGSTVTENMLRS
Nature of the assay: Cl- current in Xenopus oocytes injected with bovine parathyroid mRNA. Format: cell-based. Particulars: 30 μM. The method, then: Glass capillary tubes (1 mm diameter) were pulled to a fine tip and manually broken to achieve a tip diameter of about 15 μmeters. A droplet of mRNA (1 ng/nl in diethylpyrocarbonate (DEPC)-treated water) was placed onto […]® and drawn into the capillary tube by suction. The capillary tube was then connected to a picospritzer (WPI Instruments) and the volume of the air-pulsed droplets adjusted to deliver 50 ng of mRNA (typically 50 nl). A 35-mm culture dish with a patch of nylon stocking fixed to the bottom was used to secure the oocytes during injection of mRNA into the vegetal pole. The injected oocytes were placed into a 35-mm culture dish containing MBS, 100 μg/ml penicillin and 100 μg/ml streptomycin and incubated at 18° C. for 3 days.
Following incubation, an oocyte was placed into a 100-μl plastic chamber and superfused with MBS at a flow rate of 0.5 ml/min using a peristaltic pump. Test molecules or inorganic polycations were added by rapidly moving the tubing into different buffers. Recording and current-passing electrodes were constructed from thin-wall capillary tubing pulled to a resistance of 1-3 Mohms and filled with 3M KCl. […] Currents were recorded directly onto a strip chart recorder.

The nature of assay [2]: serum/blood ionized Ca2+ in rats. It counts as in vivo, rat. The protocol: Compounds shown to activate the bovine parathyroid cell calcium receptor in vitro were tested for hypocalcemic activity in vivo. Male Sprague-Dawley rats (200 g) were maintained on a low calcium diet for one week prior to receiving test substance or vehicle as control. Blood was collected from the tail vein three hours after the intraperitoneal administration of NPS 467. […] Serum total calcium, albumin and phosphate were measured by techniques well known in the art.
Rats (male, Sprague-Dawley, 250-300 g) were fed standard rat chow and fasted overnight prior to the experiment. NPS R-467 was suspended in corn oil and administered as a single oral dose through a gavage needle. Three hours later a sample of blood was taken from the tail vein and assessed for ionized Ca^2+ levels.

Assay [3] can be described thus: serum parathyroid hormone in a human. Particulars: single oral doses 20-400 mg. Format: in vivo. The source says:
A range of single oral doses was used to assess safety, tolerance, and changes in primary hyperparathyroidism markers (e.g., plasma concentrations of parathyroid hormone and ionized serum calcium) and of serum calcitonin.

Assay [4] is described as follows: hypocalcemic response in thyroidectomized rats. It counts as in vivo, rat. Particulars: 3 to 100 mg/kg p.o. From the text: In subsequent studies, rats received a thyroidectomy (parathyroid glands intact). This surgical procedure effectively removed the C-cells secreting calcitonin and therefore enabled the relative contributions of PTH and calcitonin to the hypocalcemic effect of this compound to be determined. […] The only difference was that the rate of onset of the hypocalcemic response was somewhat delayed in thyroidectomized animals. […] Stimulatory effects of this compound on calcitonin secretion increases the rate of onset, but not the extent, of hypocalcemia.

The subject of assay [5] is PTH secretion from human parathyroid cells. Kind of assay: PTH secretion from human parathyroid cells. As to conditions: human (adenoma) parathyroid cells. Format: cell-based. The method, then:
PTH secretion was measured by first suspending cells in PCB containing 0.5 mM CaCl2 and 0.1% BSA.
For human cells, a commercially available radioimmunoassay kit (INS-PTH; Nichols Institute, Los Angeles, Calif.) which recognizes intact and N-terminal human PTH was used because GW-1 antibody recognizes human PTH poorly.

The test system of assay [6] is osteoclast calcium receptor. Kind of assay: increase in [Ca2+]i in indo-1-loaded rat osteoclasts. Format: cell-based.
Setting [7] is: 10 mg/kg i.p., single dose, normal diet.

Entries after “also recorded” stand apart in the source; their conditions may differ. Where two headings read alike, the source gives them in different places.

With `COc1cccc([C@@H](C)NCCCc2ccccc2)c1` (single isomer, unassigned) [NPS R-467], the “Cl- current” value in assay [1] is listed as “rapid increase in Cl^-”. Moreover, in assay [2] (setting [7]), the “decrease in serum ionized Ca2+ from the control level” value amounted to 22% and the “time to maximal fall in serum ionized Ca2+” value is no more than 1 h. For the same compound, in assay [2] (single oral dose in corn oil, 3 hours), the “serum ionized Ca2+, oral” value was “lowers serum ionized calcium; also recorded: dose-dependent reduction in serum levels of ionized”.
In the case of `COc1cccc([C@@H](C)NCCCc2ccccc2Cl)c1` [NPS R-568, (R)-(+)-N-[3-(2-chlorophenyl)propyl]-amethyl-α-3-methoxybenzylamine], in assay [3], the “plasma PTH in human” value was “transient dose-dependent decrease in plasma PTH concentration”. Also, in assay [2] (p.o., rats), the “plasma Ca2+” value is on record as “rapid, dose-dependent decrease”. In assay [4], the “hypocalcemic response in thyroidectomized vs sham-operated animals” value is “equal in magnitude to that produced in sham-operated animals”.
As for `NC[C@@H]1O[C@H](O[C@H]2[C@@H](O)[C@H](O[C@@H]3[C@@H](O)[C@H](N)C[C@H](N)[C@H]3O[C@H]3O[C@H](CN)[C@@H](O)[C@H](O)[C@H]3N)O[C@@H]2CO)[C@H](N)[C@@H](O)[C@@H]1O` [Neomycin], the “inhibition of PTH secretion” value in assay [5] (listed as Neomycin B) is on record as “inhibited PTH secretion”. Besides, the “inhibition of PTH secretion” value in assay [5] (listed as neomycin B) is given as “inhibit PTH secretion”. In assay [6], the “block of [Ca2+]i response to 25 mM extracellular Ca2+” value is reported as “did not block the increase”; the “increase in [Ca2+]i in osteoclasts” value was “failed to evoke any increase”; the “increase in [Ca2+]i in osteoclasts, overall” value is reported as “none of these caused any large increase”; the “increase in [Ca2+]i in rat osteoclasts” value is “Neither”. Besides, the “effect on basal [Ca2+]i and on extracellular Ca2+-elicited increase” value in assay [6] (5 mM) was “without effect on basal”. The “increase in [Ca2+]i in osteoclasts, overall” value in assay [6] (listed as neomycin B) is listed as “fail to evoke increases”.
